# In patent US6706740B2, “Fungicidal heterocyclic aromatic amides and their compositions, methods of use and preparation” (Dow AgroSciences LLC, priority 1999, dated 2004):
# System: Magnaporthe grisea (Pyricularia oryzae—PYRIOR)
# Test: microbe, parasite or virus in culture
# Type: cell-based
# Settings: Pyricularia oryzae, read-out: PYRIOR in vitro Growth Inhibition
row,Compound,inhibition at 25 ppm [%]
1,COc1ccc(C(C)NC(=O)c2nc(Br)ccc2O)cc1 (stereo not drawn) [Compound 486],> 80
2,O=C(NC(Cc1ccccc1)c1ccccc1)c1cccnc1O (stereo not drawn) [Compound 519],< 80
3,COc1ccnc(C(=O)NC2CC(C)(C)CC(C)(C)C2)c1O [Compound 250],< 80
4,COCCC(=O)Oc1c(OC)ccnc1C(=O)N[C@H]1COC(=O)[C@H](Cc2ccccc2)[C@@H](OC(=O)C(C)C)[C@H](C)OC1=O [Compound 658],> 80

# System: Rhizoctonia solani (RHIZSO)
# Test: microbe, parasite or virus in culture
# Type: cell-based
# Settings: Rhizoctonia solani, read-out: RHIZSO in vitro Growth Inhibition
row,Compound,inhibition at 25 ppm [%]
1,COc1ccc(C(C)NC(=O)c2nc(Br)ccc2O)cc1 (stereo not drawn) [Compound 486],< 80
2,O=C(NC(Cc1ccccc1)c1ccccc1)c1cccnc1O (stereo not drawn) [Compound 519],< 80
3,COc1ccnc(C(=O)NC2CC(C)(C)CC(C)(C)C2)c1O [Compound 250],< 80
4,COCCC(=O)Oc1c(OC)ccnc1C(=O)N[C@H]1COC(=O)[C@H](Cc2ccccc2)[C@@H](OC(=O)C(C)C)[C@H](C)OC1=O [Compound 658],< 80

# System: Mycosphaerella graminicola (Septoria tritici—SEPTTR)
# Test: In vitro fungal growth inhibition, Mycosphaerella graminicola (SEPTTR)
# Type: cell-based
# Settings: Zymoseptoria tritici; 25 ppm in growth medium; read-out: SEPTTR in vitro Growth Inhibition
row,Compound,inhibition at 25 ppm [%]
1,COc1ccnc(C(=O)NC2CC(C)(C)CC(C)(C)C2)c1O [Compound 250],< 80
2,COCCC(=O)Oc1c(OC)ccnc1C(=O)N[C@H]1COC(=O)[C@H](Cc2ccccc2)[C@@H](OC(=O)C(C)C)[C@H](C)OC1=O [Compound 658],< 80

# Same assay, conditions: Zymoseptoria tritici; 25 ppm in the growth medium; read-out: SEPTTR in vitro Growth Inhibition
row,Compound,inhibition at 25 ppm [%]
1,COc1ccc(C(C)NC(=O)c2nc(Br)ccc2O)cc1 (stereo not drawn) [Compound 486],< 80
2,O=C(NC(Cc1ccccc1)c1ccccc1)c1cccnc1O (stereo not drawn) [Compound 519],< 80

# System: Stagonospora nodorum (Leptosphaeria nodorum—LEPTNO)
# Test: In vitro fungal growth inhibition, Stagonospora nodorum (LEPTNO)
# Type: cell-based
# Settings: Leptosphaeria; 25 ppm in growth medium; read-out: LEPTNO in vitro Growth Inhibition
row,Compound,inhibition at 25 ppm [%]
1,COc1ccnc(C(=O)NC2CC(C)(C)CC(C)(C)C2)c1O [Compound 250],> 80
2,COCCC(=O)Oc1c(OC)ccnc1C(=O)N[C@H]1COC(=O)[C@H](Cc2ccccc2)[C@@H](OC(=O)C(C)C)[C@H](C)OC1=O [Compound 658],< 80

# Same assay, conditions: Leptosphaeria; 25 ppm in the growth medium; read-out: LEPTNO in vitro Growth Inhibition
row,Compound,inhibition at 25 ppm [%]
1,COc1ccc(C(C)NC(=O)c2nc(Br)ccc2O)cc1 (stereo not drawn) [Compound 486],< 80
2,O=C(NC(Cc1ccccc1)c1ccccc1)c1cccnc1O (stereo not drawn) [Compound 519],< 80

# System: Ustilago maydis (USTIMA)
# Test: microbe, parasite or virus in culture
# Type: cell-based
# Settings: Mycosarcoma maydis, read-out: USTIMA in vitro Growth Inhibition
row,Compound,inhibition at 25 ppm [%]
1,COc1ccc(C(C)NC(=O)c2nc(Br)ccc2O)cc1 (stereo not drawn) [Compound 486],< 80
2,O=C(NC(Cc1ccccc1)c1ccccc1)c1cccnc1O (stereo not drawn) [Compound 519],< 80
3,COc1ccnc(C(=O)NC2CC(C)(C)CC(C)(C)C2)c1O [Compound 250],< 80
4,COCCC(=O)Oc1c(OC)ccnc1C(=O)N[C@H]1COC(=O)[C@H](Cc2ccccc2)[C@@H](OC(=O)C(C)C)[C@H](C)OC1=O [Compound 658],< 80

# System: Phytophthora infestans (PHYTIN)
# Test: microbe, parasite or virus in culture
# Type: cell-based
# Settings: Phytophthora infestans, read-out: PHYTIN in vitro Growth Inhibition
row,Compound,inhibition at 25 ppm [%]
1,COc1ccc(C(C)NC(=O)c2nc(Br)ccc2O)cc1 (stereo not drawn) [Compound 486],< 80
2,O=C(NC(Cc1ccccc1)c1ccccc1)c1cccnc1O (stereo not drawn) [Compound 519],< 80
3,COc1ccnc(C(=O)NC2CC(C)(C)CC(C)(C)C2)c1O [Compound 250],> 80
4,COCCC(=O)Oc1c(OC)ccnc1C(=O)N[C@H]1COC(=O)[C@H](Cc2ccccc2)[C@@H](OC(=O)C(C)C)[C@H](C)OC1=O [Compound 658],< 80

# System: Phytophthora infestans—PHYTIN
# Test: whole plant or invertebrate
# Type: in vivo
# Settings: Phytophthora, in Solanum lycopersicum, 24 h, read-out: PHYTIN in vivo 1 Day Protectant
row,Compound,pest or weed control at 100 ppm [%]
1,COc1ccc(C(C)NC(=O)c2nc(Br)ccc2O)cc1 (stereo not drawn) [Compound 486],< 25
2,O=C(NC(Cc1ccccc1)c1ccccc1)c1cccnc1O (stereo not drawn) [Compound 519],< 25
3,COc1ccnc(C(=O)NC2CC(C)(C)CC(C)(C)C2)c1O [Compound 250],25 to 74
4,COCCC(=O)Oc1c(OC)ccnc1C(=O)N[C@H]1COC(=O)[C@H](Cc2ccccc2)[C@@H](OC(=O)C(C)C)[C@H](C)OC1=O [Compound 658],< 25

# System: Puccinia recondita—PUCCRT
# Test: Brown Rust of Wheat, in vivo whole plant, 24 Hour Protectant
# Settings: 100 ppm spray, wheat, 24 hour protectant, % control of fungal infection vs untreated plants
row,Compound,PUCCRT in vivo 1 Day Protectant
1,COCCC(=O)Oc1c(OC)ccnc1C(=O)N[C@H]1COC(=O)[C@H](Cc2ccccc2)[C@@H](OC(=O)C(C)C)[C@H](C)OC1=O [Compound 658],+ +

# Same assay, conditions: Puccinia; 100 ppm spray, 24 hour protectant, wheat; control of fungal infection vs untreated plants; read-out: PUCCRT in vivo 1 Day Protectant
row,Compound,pest or weed control at 100 ppm [%]
1,COc1ccnc(C(=O)NC2CC(C)(C)CC(C)(C)C2)c1O [Compound 250],25 to 74

# Same assay, conditions: Puccinia; wheat plants sprayed at 100 ppm, inoculated after 24 hours; control of fungal infection vs untreated plants; read-out: PUCCRT in vivo 1 Day Protectant
row,Compound,pest or weed control at 100 ppm [%]
1,COc1ccc(C(C)NC(=O)c2nc(Br)ccc2O)cc1 (stereo not drawn) [Compound 486],< 25
2,O=C(NC(Cc1ccccc1)c1ccccc1)c1cccnc1O (stereo not drawn) [Compound 519],< 25

# System: Erysiphe graminis—ERYSGT
# Test: Powdery Mildew of Wheat, in vivo whole plant, 24 Hour Protectant
# Settings: Erysiphe; 100 ppm spray, 24 hour protectant, wheat; control of fungal infection vs untreated plants; read-out: ERYSGT in vivo 1 Day Protectant
row,Compound,pest or weed control at 100 ppm [%]
1,COc1ccnc(C(=O)NC2CC(C)(C)CC(C)(C)C2)c1O [Compound 250],< 25

# Same assay, conditions: Erysiphe; 100 ppm spray, wheat, 24 hour protectant, % control of fungal infection vs untreated plants; read-out: ERYSGT in vivo 1 Day Protectant
row,Compound,pest or weed control at 100 ppm [%]
1,COCCC(=O)Oc1c(OC)ccnc1C(=O)N[C@H]1COC(=O)[C@H](Cc2ccccc2)[C@@H](OC(=O)C(C)C)[C@H](C)OC1=O [Compound 658],< 25

# Same assay, conditions: Erysiphe; wheat plants sprayed at 100 ppm, inoculated after 24 hours; control of fungal infection vs untreated plants; read-out: ERYSGT in vivo 1 Day Protectant
row,Compound,pest or weed control at 100 ppm [%]
1,COc1ccc(C(C)NC(=O)c2nc(Br)ccc2O)cc1 (stereo not drawn) [Compound 486],< 25
2,O=C(NC(Cc1ccccc1)c1ccccc1)c1cccnc1O (stereo not drawn) [Compound 519],< 25

# System: Septoria tritici—SEPTTR
# Test: Leaf Blotch of Wheat, in vivo whole plant, 24 Hour Protectant
# Settings: 100 ppm spray, wheat, 24 hour protectant, % control of fungal infection vs untreated plants
row,Compound,SEPTTR in vivo 1 Day Protectant
1,COCCC(=O)Oc1c(OC)ccnc1C(=O)N[C@H]1COC(=O)[C@H](Cc2ccccc2)[C@@H](OC(=O)C(C)C)[C@H](C)OC1=O [Compound 658],+ +

# Same assay, conditions: Zymoseptoria tritici, 24 h, 100 ppm spray, 24 hour protectant, wheat; control of fungal infection vs untreated plants; read-out: SEPTTR in vivo 1 Day Protectant
row,Compound,pest or weed control at 100 ppm [%]
1,COc1ccnc(C(=O)NC2CC(C)(C)CC(C)(C)C2)c1O [Compound 250],< 25

# Same assay, conditions: Zymoseptoria tritici, 24 h, wheat plants sprayed at 100 ppm, inoculated after 24 hours; control of fungal infection vs untreated plants; read-out: SEPTTR in vivo 1 Day Protectant
row,Compound,pest or weed control at 100 ppm [%]
1,COc1ccc(C(C)NC(=O)c2nc(Br)ccc2O)cc1 (stereo not drawn) [Compound 486],< 25
2,O=C(NC(Cc1ccccc1)c1ccccc1)c1cccnc1O (stereo not drawn) [Compound 519],< 25

# System: Leptosphaeria nodorum—LEPTNO
# Test: Glume Blotch of Wheat, in vivo whole plant, 24 Hour Protectant
# Settings: 100 ppm spray, wheat, 24 hour protectant, % control of fungal infection vs untreated plants
row,Compound,LEPTNO in vivo 1 Day Protectant
1,COCCC(=O)Oc1c(OC)ccnc1C(=O)N[C@H]1COC(=O)[C@H](Cc2ccccc2)[C@@H](OC(=O)C(C)C)[C@H](C)OC1=O [Compound 658],+ +

# Same assay, conditions: Leptosphaeria; 100 ppm spray, 24 hour protectant, wheat; control of fungal infection vs untreated plants; read-out: LEPTNO in vivo 1 Day Protectant
row,Compound,pest or weed control at 100 ppm [%]
1,COc1ccnc(C(=O)NC2CC(C)(C)CC(C)(C)C2)c1O [Compound 250],25 to 74

# Same assay, conditions: Leptosphaeria; wheat plants sprayed at 100 ppm, inoculated after 24 hours; control of fungal infection vs untreated plants; read-out: LEPTNO in vivo 1 Day Protectant
row,Compound,pest or weed control at 100 ppm [%]
1,COc1ccc(C(C)NC(=O)c2nc(Br)ccc2O)cc1 (stereo not drawn) [Compound 486],< 25
2,O=C(NC(Cc1ccccc1)c1ccccc1)c1cccnc1O (stereo not drawn) [Compound 519],25 to 74

# System: not given
# Test: not given
# Settings: not given
row,Compound,melting point [°C]
1,COc1ccc(C(C)NC(=O)c2nc(Br)ccc2O)cc1 (stereo not drawn) [Compound 486],111 to 113
2,O=C(NC(Cc1ccccc1)c1ccccc1)c1cccnc1O (stereo not drawn) [Compound 519],190 to 192
3,COc1ccnc(C(=O)NC2CC(C)(C)CC(C)(C)C2)c1O [Compound 250],104 to 106
4,COCCC(=O)Oc1c(OC)ccnc1C(=O)N[C@H]1COC(=O)[C@H](Cc2ccccc2)[C@@H](OC(=O)C(C)C)[C@H](C)OC1=O [Compound 658],126 to 128
